Experimental data published in publication PMC7069944, “Amino acid levels determine metabolism and CYP450 function of hepatocytes and hepatoma cell lines” (Nature Communications, 2020).
Values joined by “and” are separate entries in the source; they are usually repeats but may differ in a detail not shown here. Equal values may be shown once.

Tests used:
[1] = tested on: HC6X; test: Repeated-exposure DILI training compounds, resazurin conversion, HC6X; conditions: for % resazurin conversion: repeat exposure; for resazurin conversion (Supplementary Figure 7D): replicates
Procedure: (§1) To evaluate the ability to predict hepatotoxicity, we adapted the differentiation assays to a 384-well format. […] As a readout, we evaluated cell viability by resazurin conversion and correlated the results to therapeutic doses (Cmax values).
(§2) PSCs were differentiated in a 384-well format. […] As a negative control, 41 wells were left untreated. HepG2 were seeded at 40,000 cells per well. […] Cells were fixed with 4% PFA. […] Drugs were administrated after 8 h of attachment.

[2] = tested on: HLC; test: Repeated-exposure DILI training compounds, resazurin conversion, HLC; conditions: repeat exposure
Procedure: as §1, §2

[3] = tested on: HepG2; test: Repeated-exposure DILI training compounds, resazurin conversion, HepG2; conditions: for % resazurin conversion: repeat exposure; for resazurin conversion (Supplementary Figure 7D): replicates
Procedure: as §1, §2

[4] = tested on: HC3X; test: Repeated-exposure DILI training compounds, resazurin conversion, HC3X; conditions: for IC50/Cmax: human; for resazurin conversion (Supplementary Figure 7D): HC3X AAGLY D40, replicates
Procedure: as §1, §2

[5] = HC6X AAGLY D40 Remove dox, 100 uM

O=C1CC2(CCCC2)CC(=O)N1CCCCN1CCN(c2ncccn2)CC1 [Buspiron]
% resazurin conversion ([1]; HC6X AAGLY D40, 3 uM): 109.5% and 96.9% and 120.8% and 98% and 87.5% and 117.9% | % resazurin conversion ([1]; HC6X AAGLY D40, 5 uM): 83.7% and 97.5% and 104.1% and 109.8% and 83.3% and 99.7% | % resazurin conversion ([1]; HC6X AAGLY D40, 10 uM): 85.5% and 135.9% and 111.1% and 117.5% and 91.9% and 102.2% | % resazurin conversion ([1]; HC6X AAGLY D40, 30 uM): 114% and 167.8% and 149.8% and 117.8% and 94% and 164.1% | % resazurin conversion ([1]; HC6X AAGLY D40, 50 uM): 112.9% and 116.6% and 111.2% and 167.3% and 107.2% and 107.3% | % resazurin conversion ([1]; HC6X AAGLY D40, 100 uM): 109.2% and 112.4% and 163.5% and 127.2% and 106% and 162.8% | % resazurin conversion ([1]; HC6X AAGLY D40, 300 uM): 140.3% and 103.5% and 121.9% and 115.9% and 101.2% and 155.2% | % resazurin conversion ([1]; HC6X AAGLY D40, 600 uM): 143.6% and 91% and 112.3% and 121.3% and 99.3% and 149.8% | % resazurin conversion ([1]; HC6X AAGLY D40, 1200 uM): 56.9% and 60.8% and 76.3% and 66.9% and 59.2% | % resazurin conversion ([1]; HC6X AAGLY D40 Remove dox, 3 uM): 93.4% and 152.6% and 130.2% and 156.1% and 101.5% and 127.1% | % resazurin conversion ([1]; HC6X AAGLY D40 Remove dox, 10 uM): 169.9% and 114.9% and 169.4% and 120.1% and 97.5% and 96% | % resazurin conversion [1, 5]: 158.4% and 106.8% and 179.1% and 111.4% and 123.7% and 132% | % resazurin conversion ([2]; HLC AAGLY D40, 5 uM): 67.7% and 92.7% and 64.2% and 84.3% and 47.9% and 66.7% | % resazurin conversion ([2]; HLC AAGLY D40, 10 uM): 85.8% and 64.9% and 92.1% and 82% and 66.1% and 66.8% | % resazurin conversion ([2]; HLC AAGLY D40, 30 uM): 116.3% and 73.9% and 114.6% and 80.9% and 111.6% and 83.2% | % resazurin conversion ([2]; HLC AAGLY D40, 600 uM): 33.4% and 36.6% and 61.5% and 38.3% and 40.4% and 34.1% | % resazurin conversion ([2]; HLC AAGLY D40, 1200 uM): 36.8% and 25.4% and 26.6% and 31.3% and 28.1% and 38% | % resazurin conversion ([2]; HLC LDM D40, 3 uM): 103.9% and 103.1% and 108.1% and 79.4% and 66.2% and 77.5% | % resazurin conversion ([2]; HLC LDM D40, 5 uM): 89.3% and 69.5% and 87.6% and 70.2% and 108.2% | % resazurin conversion ([2]; HLC LDM D40, 10 uM): 86.6% and 87.3% and 101% and 83.8% and 104.7% and 105% | % resazurin conversion ([2]; HLC LDM D40, 30 uM): 71.9% and 90.1% and 102.1% and 75.5% and 80.5% and 81.4% | % resazurin conversion ([2]; HLC LDM D40, 50 uM): 56.1% and 105.8% and 92.3% and 104% and 79.6% | % resazurin conversion ([2]; HLC LDM D40, 100 uM): 84.7% and 120.8% and 121.2% and 77.9% and 92% and 91.2% | % resazurin conversion ([3]; HepG2 AAGLY D30, 3 uM): 82.9% and 82.6% and 85.2% and 70.1% and 73.2% | % resazurin conversion ([3]; HepG2 AAGLY D30, 5 uM): 75.8% and 88.2% and 72.9% and 66.2% and 79.4% and 72.2% | % resazurin conversion ([3]; HepG2 AAGLY D30, 10 uM): 70.9% and 76.8% and 83.7% and 64.5% and 73.5% and 76.4% | % resazurin conversion ([3]; HepG2 AAGLY D30, 30 uM): 83.2% and 92.9% and 78.7% and 72.3% and 78.9% and 76.5% | % resazurin conversion ([3]; HepG2 AAGLY D30, 50 uM): 80.3% and 98.3% and 89.9% and 83.3% and 93.4% and 81.9% | % resazurin conversion ([3]; HepG2 AAGLY D30, 100 uM): 88.3% and 87.7% and 85.2% and 77.2% and 94.7% and 81.8% | % resazurin conversion ([3]; HepG2 AAGLY D30, 300 uM): 47.4% and 86.8% and 88.6% and 79.7% and 88.3% and 80.1% | % resazurin conversion ([3]; HepG2 AAGLY D30, 600 uM): 76.5% and 91.9% and 75.1% and 71.1% and 78% and 76.7% | % resazurin conversion ([3]; HepG2 AAGLY D30, 1200 uM): 38% and 34.1% and 34.5% and 34.6% and 35.7% | % resazurin conversion ([3]; HepG2 CTL D7, 3 uM): 92.8% | % resazurin conversion ([3]; HepG2 CTL D7, 5 uM): 96.4% and 97.6% and 106.5% and 96.6% and 98% and 90.2% | % resazurin conversion ([3]; HepG2 CTL D7, 10 uM): 94.3% and 94.1% and 99.5% and 93.5% and 98.4% and 95.6% | % resazurin conversion ([3]; HepG2 CTL D7, 30 uM): 82.7% and 84.2% and 92.3% and 83% and 85.3% and 78.8% | % resazurin conversion ([3]; HepG2 CTL D7, 50 uM): 72.7% and 67.2% and 78.7% and 68.5% and 76.7% and 71.9% | % resazurin conversion ([3]; HepG2 CTL D7, 100 uM): 67.5% and 61.8% and 72.7% and 60.8% and 71.2% and 63.1% | % resazurin conversion ([3]; HepG2 CTL D7, 300 uM): 61.1% and 51.9% and 57.2% and 57% and 59.1% and 57.6% | % resazurin conversion ([3]; HepG2 CTL D7, 600 uM): 38.6% and 29% and 35.3% and 36.3% and 35.1% and 38.2% | % resazurin conversion ([3]; HepG2 CTL D7, 1200 uM): 7% and 6.5% and 7.1% and 6.8% and 6.6%

O=C1CC2(CCCC2)CC(=O)N1CCCCN1CCN(c2ncccn2)CC1 [Buspirone]
IC50/Cmax [4]: 120200

CCc1ccc(CCOc2ccc(CC3SC(=O)NC3=O)cc2)nc1 (stereo not shown) [Proglitazone]
resazurin conversion (Supplementary Figure 7D) ([1]; HC6X AAGLY D40, 30 uM): 134.4 and 112 and 79.3 and 107.2 and 76.2 and 91.4 | resazurin conversion (Supplementary Figure 7D) ([1]; HC6X AAGLY D40, 50 uM): 137 and 83.7 and 59.1 and 75.7 and 149.3 and 136.5 | resazurin conversion (Supplementary Figure 7D) ([1]; HC6X AAGLY D40, 100 uM): 100.9 and 141.3 and 83.6 and 90.9 and 69.2 and 155.3 | resazurin conversion (Supplementary Figure 7D) ([1]; HC6X AAGLY D40, 300 uM): 125.9 and 124.5 and 135.2 and 127.1 and 125.2 and 153.4 | resazurin conversion (Supplementary Figure 7D) ([1]; HC6X AAGLY D40, 600 uM): 91.5 and 88.8 and 88.2 and 125.7 and 101 and 136.6 | resazurin conversion (Supplementary Figure 7D) ([1]; HC6X AAGLY D40, 1200 uM): 94.8 and 131 and 95.9 and 103.6 and 97.2 and 136.5 | resazurin conversion (Supplementary Figure 7D) ([1]; HC6X AAGLY D40 Remove dox, 30 uM): 121 and 98.9 and 91.2 and 87.5 and 101 | resazurin conversion (Supplementary Figure 7D) ([1]; HC6X AAGLY D40 Remove dox, 50 uM): 105.9 and 84.2 and 118.5 and 71.8 and 81.4 and 110 | resazurin conversion (Supplementary Figure 7D) [1, 5]: 120.6 and 83.7 and 95.6 and 119.3 and 129.6 | resazurin conversion (Supplementary Figure 7D) ([1]; HC6X AAGLY D40 Remove dox, 300 uM): 107.4 and 124.1 and 139.3 and 91.4 and 117.3 and 157.9 | resazurin conversion (Supplementary Figure 7D) ([1]; HC6X AAGLY D40 Remove dox, 600 uM): 74.1 and 108.7 and 93.3 and 116.1 and 116 and 105.8 | resazurin conversion (Supplementary Figure 7D) ([1]; HC6X AAGLY D40 Remove dox, 1200 uM): 119 and 156.2 and 148 and 139.2 and 120.5 | resazurin conversion (Supplementary Figure 7D) ([3]; HepG2 AAGLY D30, 30 uM): 76.5 (2×) and 98.3 and 82.8 and 103.2 and 80.9 | resazurin conversion (Supplementary Figure 7D) ([3]; HepG2 AAGLY D30, 50 uM): 86.1 and 109.6 and 86.4 and 100 and 77.1 and 92.9 | resazurin conversion (Supplementary Figure 7D) ([3]; HepG2 AAGLY D30, 100 uM): 85.4 and 96.2 and 90.6 and 100.7 and 78.9 and 86.6 | resazurin conversion (Supplementary Figure 7D) ([3]; HepG2 AAGLY D30, 300 uM): 105.7 and 117.9 and 106.2 and 102.2 | resazurin conversion (Supplementary Figure 7D) ([3]; HepG2 AAGLY D30, 600 uM): 91.8 and 99.3 and 126.4 and 102.6 and 116.8 | resazurin conversion (Supplementary Figure 7D) ([3]; HepG2 AAGLY D30, 1200 uM): 95.2 and 102.5 and 118.4 and 129.4 and 110.4 and 135.6 | resazurin conversion (Supplementary Figure 7D) ([3]; HepG2 CTL D7, 30 uM): 120.4 and 118.8 and 101.6 and 104 and 100.1 | resazurin conversion (Supplementary Figure 7D) ([3]; HepG2 CTL D7, 50 uM): 129.5 and 93.8 and 100.8 and 96.7 and 101.2 and 122.3 | resazurin conversion (Supplementary Figure 7D) ([3]; HepG2 CTL D7, 100 uM): 125.4 and 88.5 and 98 and 96 (2×) and 110.7 | resazurin conversion (Supplementary Figure 7D) ([3]; HepG2 CTL D7, 300 uM): 117.2 and 87 and 94.6 (2×) and 95.5 and 111.8 | resazurin conversion (Supplementary Figure 7D) ([3]; HepG2 CTL D7, 600 uM): 86.3 and 70.3 and 76.6 and 75.3 and 70.1 and 87.4 | resazurin conversion (Supplementary Figure 7D) ([3]; HepG2 CTL D7, 1200 uM): 57 and 33 and 42.5 and 44.8 and 41.7 and 59 | resazurin conversion (Supplementary Figure 7D) ([4]; 30 uM): 121 and 98.9 and 91.2 and 87.5 and 101 | resazurin conversion (Supplementary Figure 7D) ([4]; 50 uM): 105.9 and 84.2 and 118.5 and 71.8 and 81.4 and 110 | resazurin conversion (Supplementary Figure 7D) ([4]; 100 uM): 120.6 and 83.7 and 95.6 and 119.3 and 129.6 | resazurin conversion (Supplementary Figure 7D) ([4]; 300 uM): 107.4 and 124.1 and 139.3 and 91.4 and 117.3 and 157.9 | resazurin conversion (Supplementary Figure 7D) ([4]; 600 uM): 74.1 and 108.7 and 93.3 and 116.1 and 116 and 105.8 | resazurin conversion (Supplementary Figure 7D) ([4]; 1200 uM): 119 and 156.2 and 148 and 139.2 and 120.5

C1CCC(C(CC2CCCCN2)C2CCCCC2)CC1 (stereo not shown) [perhexiline]
IC50/Cmax [4]: 0.58
